According to patent US20230248740A1, “Pharmaceutical Composition Comprising Compound Capable of Penetrating Blood-Brain Barrier as Effective Ingredient for Preventing or Treating Brain Cancer” (DAEGU-GYEONGBUK MEDICAL INNOVATION FOUNDATION, priority 2017, published 2023):
Blank lines part the entries; values can stand above or below the compound they belong to.

What was measured:
LRRK2 protein [1] = molecular target: T1, LRRK2 protein (Homo sapiens, UniProt Q5S007); experiment: LRRK2 protein phosphorylation inhibitory activity, Western blotting, NCC01 cells; assay type: cell-based, human (brain-tumor-patient-derived cell line); settings: after 1 day
T1 construct: endogenous in cells; host or cells: NCC01 (brain-tumor-patient-derived cell line)
Description: In order to evaluate drug efficacy in vitro, a Western blotting experiment was performed using brain-tumor-patient-derived cell line NCC01 cells.
(§1) Here, the group not treated with the compound of Example was used as a vehicle.
as §1
Here, the group not treated with the compound of Example was used as a vehicle. […]
More specifically, 7.5x10^5 to 1.0x10^6 cells were treated with the compound of Comparative Example at a concentration of 0.1 or 1.0 µM, and after 1 day, samples were collected and evaluated for LRRK2 protein phosphorylation inhibitory activity through Western blotting. Here, the group not treated with the compound of Example was used as a vehicle.

LRRK2 protein [2] = molecular target: T1, LRRK2 protein; experiment: LRRK2 protein phosphorylation inhibitory activity, Western blotting, 448T cells; assay type: cell-based, human (brain-tumor-patient-derived cell line); settings: after 1 day
Description: An experiment was conducted in order to evaluate the in-vitro drug efficacy of the compound of Comparative Example, known as an LRRK2 protein inhibitor.

NCC01 cells [3] = experiment: Apoptosis induction activity, FACS, NCC01 cells; assay type: cell-based, human (brain-tumor-patient-derived cell line); settings: 100 nM, after 1 day
Description: In order to evaluate whether apoptosis of brain tumor cells is induced by inhibiting LRRK2 protein phosphorylation, an experiment was conducted using FACS (fluorescence-activated cell sorting).
More specifically, 7.5x10^5 to 1.0x10^6 NCC01 cells were treated with the compound of each of Examples 11, 12 and 21 at a concentration of 100 nM, and after 1 day, samples were collected and subjected to FACS, thus assaying the apoptosis induction activity. The group not treated with the compound of Example was used as a control.

NESTIN protein = experiment: Expression of NESTIN protein (cancer stem cell marker), Western blotting, NCC01 cells; assay type: cell-based, human (brain-tumor-patient-derived cell line); settings: 50 to 2,000 nM, after 1 day
Description: More specifically, 1.0x10^6 NCC01 cells were treated with the compound of Example 12 at concentrations of 50, 100, 500, 1,000 and 2,000 nM. After 1 day, samples were collected and the expression of NESTIN protein, which is a cancer stem cell marker involved in the intracellular signaling pathway, was measured through Western blotting. Here, the group not treated with the compound of Example was used as a vehicle.

NCC01 cells [4] = experiment: Mitochondrial function, TMRE staining of activated mitochondria, NCC01 cells; assay type: cell-based, human (brain-tumor-patient-derived cell line); settings: after 1 day
Description: Specifically, NCC01 cells were treated with the compound of Example 12 at 1 µM, and after 1 day, TMRE (tetramethylrhodamine ethylester) dye for staining activated mitochondria was added thereto to evaluate changes in mitochondrial function. Here, the group not treated with the compound of Example was used as a control.
Specifically, brain tumor stem cell line NCC01 cells were treated with the compound of Example 12 at a concentration of 0.1 or 1 µM, and after 1 day, the mitochondria were stained as described in Experimental Example 9 to assay changes in the function thereof. Here, the group not treated with the compound of Example was used as a vehicle.

[5] = test system: TRAP1 (TNF receptor associated protein 1); experiment: TRAP1 expression, Western blotting, brain tumor stem cell line NCC01; assay type: cell-based, human (brain-tumor-patient-derived cell line); settings: NCC01 cells, 100 or 1,000 nM, after 1 day
Description: Specifically, brain tumor stem cell line NCC01 cells were added with the compound of Example 12 at a concentration of 100 or 1,000 nM, and after 1 day, changes in the expression of TRAP1 were measured through Western blotting. Here, the group not treated with the compound of Example was used as a vehicle.

NCC01 cells [6] = experiment: Growth inhibitory activity on brain tumor cells in animal model, NCC01 cells injected into the brain; assay type: in vivo, Balb/c-nude mouse; settings: orally
Description: (§2) More specifically, 1.0x10^4 NCC01 cells, a brain-tumor-patient-derived cell line, were injected into the brain of a Balb/c-nude mouse model, and after 3 days, the compound of Example 12 was orally administered at a dose of 10 mg/kg or 60 mg/kg. After administration of the compound, the survival rate of the mice based on the survival period was determined, and the size of the tumors generated in the mice was measured using MRI. Here, the group not treated with the compound of Example was used as a vehicle.

U87MG cells = experiment: Therapeutic effect on brain tumor upon co-administration with Avastin, U87MG orthotopic mouse model; assay type: in vivo, Balb/c-nude mice; settings: Example 12 orally 30 mg/kg in combination with Avastin intraperitoneally 10 mg/kg, vs Avastin
Description: More specifically, orthotopic mouse models were manufactured using 5-week-old Balb/c-nude mice. U87MG cells (ATCC, USA), a brain tumor cell line, were injected 3.5 mm deep at a position 2.2 mm to the left of and 0.5 mm behind the bregma using a stereotaxic device. 3 days after injection of the cells, mice were divided into three groups of 5 mice per group (a control (vehicle), a group administered with Avastin, and a group administered with the compound of Example 12 and Avastin), and the drug was administered thereto. The compound of Example 12 was orally administered at a dose of 30 mg/kg and Avastin was injected intraperitoneally at a dose of 10 mg/kg.

448T cells = experiment: Growth inhibitory activity on brain tumor cells in animal model, 448T cells injected into the brain; assay type: in vivo, Balb/c-nude mouse; settings: orally, 60 mg/kg
Description: as §2
Specifically, the experiment was conducted in the same manner under the same conditions as in Experimental Example 14, with the exception that 448T cells were used in lieu of NCC01 cells, and the compound of each of Examples 12, 20 and 21 was orally administered at a dose of 60 mg/kg.

LRRK2 protein [7] = molecular target: T1, LRRK2 protein; experiment: LRRK2 protein phosphorylation inhibitory activity, Western blotting, NCC01 cells; assay type: cell-based, human (brain-tumor-patient-derived cell line); settings: for LRRK2 protein phosphorylation: after 1 day
NCC01 cells [8] = experiment: Sphere size under hypoxic conditions with shRNA against the LRRK2 gene, NCC01 cells; assay type: cell-based, human (brain-tumor-patient-derived cell line); settings: NCC01 cells exposed to hypoxic conditions
Description: (§3) Specifically, NCC01 and 528NS cells were exposed to hypoxic conditions and treated with two kinds of shRNA against the LRRK2 gene, after which changes in the size of spheres were measured. Here, a control was shRNA (shNT) against luciferase.

528NS cells = experiment: Sphere size under hypoxic conditions with shRNA against the LRRK2 gene, 528NS cells; assay type: cell-based; settings: 528NS cells exposed to hypoxic conditions
Description: as §3

[9] = 100 or 1,000 nM, compared to the vehicle

T1 sequence (Q5S007 whole entry): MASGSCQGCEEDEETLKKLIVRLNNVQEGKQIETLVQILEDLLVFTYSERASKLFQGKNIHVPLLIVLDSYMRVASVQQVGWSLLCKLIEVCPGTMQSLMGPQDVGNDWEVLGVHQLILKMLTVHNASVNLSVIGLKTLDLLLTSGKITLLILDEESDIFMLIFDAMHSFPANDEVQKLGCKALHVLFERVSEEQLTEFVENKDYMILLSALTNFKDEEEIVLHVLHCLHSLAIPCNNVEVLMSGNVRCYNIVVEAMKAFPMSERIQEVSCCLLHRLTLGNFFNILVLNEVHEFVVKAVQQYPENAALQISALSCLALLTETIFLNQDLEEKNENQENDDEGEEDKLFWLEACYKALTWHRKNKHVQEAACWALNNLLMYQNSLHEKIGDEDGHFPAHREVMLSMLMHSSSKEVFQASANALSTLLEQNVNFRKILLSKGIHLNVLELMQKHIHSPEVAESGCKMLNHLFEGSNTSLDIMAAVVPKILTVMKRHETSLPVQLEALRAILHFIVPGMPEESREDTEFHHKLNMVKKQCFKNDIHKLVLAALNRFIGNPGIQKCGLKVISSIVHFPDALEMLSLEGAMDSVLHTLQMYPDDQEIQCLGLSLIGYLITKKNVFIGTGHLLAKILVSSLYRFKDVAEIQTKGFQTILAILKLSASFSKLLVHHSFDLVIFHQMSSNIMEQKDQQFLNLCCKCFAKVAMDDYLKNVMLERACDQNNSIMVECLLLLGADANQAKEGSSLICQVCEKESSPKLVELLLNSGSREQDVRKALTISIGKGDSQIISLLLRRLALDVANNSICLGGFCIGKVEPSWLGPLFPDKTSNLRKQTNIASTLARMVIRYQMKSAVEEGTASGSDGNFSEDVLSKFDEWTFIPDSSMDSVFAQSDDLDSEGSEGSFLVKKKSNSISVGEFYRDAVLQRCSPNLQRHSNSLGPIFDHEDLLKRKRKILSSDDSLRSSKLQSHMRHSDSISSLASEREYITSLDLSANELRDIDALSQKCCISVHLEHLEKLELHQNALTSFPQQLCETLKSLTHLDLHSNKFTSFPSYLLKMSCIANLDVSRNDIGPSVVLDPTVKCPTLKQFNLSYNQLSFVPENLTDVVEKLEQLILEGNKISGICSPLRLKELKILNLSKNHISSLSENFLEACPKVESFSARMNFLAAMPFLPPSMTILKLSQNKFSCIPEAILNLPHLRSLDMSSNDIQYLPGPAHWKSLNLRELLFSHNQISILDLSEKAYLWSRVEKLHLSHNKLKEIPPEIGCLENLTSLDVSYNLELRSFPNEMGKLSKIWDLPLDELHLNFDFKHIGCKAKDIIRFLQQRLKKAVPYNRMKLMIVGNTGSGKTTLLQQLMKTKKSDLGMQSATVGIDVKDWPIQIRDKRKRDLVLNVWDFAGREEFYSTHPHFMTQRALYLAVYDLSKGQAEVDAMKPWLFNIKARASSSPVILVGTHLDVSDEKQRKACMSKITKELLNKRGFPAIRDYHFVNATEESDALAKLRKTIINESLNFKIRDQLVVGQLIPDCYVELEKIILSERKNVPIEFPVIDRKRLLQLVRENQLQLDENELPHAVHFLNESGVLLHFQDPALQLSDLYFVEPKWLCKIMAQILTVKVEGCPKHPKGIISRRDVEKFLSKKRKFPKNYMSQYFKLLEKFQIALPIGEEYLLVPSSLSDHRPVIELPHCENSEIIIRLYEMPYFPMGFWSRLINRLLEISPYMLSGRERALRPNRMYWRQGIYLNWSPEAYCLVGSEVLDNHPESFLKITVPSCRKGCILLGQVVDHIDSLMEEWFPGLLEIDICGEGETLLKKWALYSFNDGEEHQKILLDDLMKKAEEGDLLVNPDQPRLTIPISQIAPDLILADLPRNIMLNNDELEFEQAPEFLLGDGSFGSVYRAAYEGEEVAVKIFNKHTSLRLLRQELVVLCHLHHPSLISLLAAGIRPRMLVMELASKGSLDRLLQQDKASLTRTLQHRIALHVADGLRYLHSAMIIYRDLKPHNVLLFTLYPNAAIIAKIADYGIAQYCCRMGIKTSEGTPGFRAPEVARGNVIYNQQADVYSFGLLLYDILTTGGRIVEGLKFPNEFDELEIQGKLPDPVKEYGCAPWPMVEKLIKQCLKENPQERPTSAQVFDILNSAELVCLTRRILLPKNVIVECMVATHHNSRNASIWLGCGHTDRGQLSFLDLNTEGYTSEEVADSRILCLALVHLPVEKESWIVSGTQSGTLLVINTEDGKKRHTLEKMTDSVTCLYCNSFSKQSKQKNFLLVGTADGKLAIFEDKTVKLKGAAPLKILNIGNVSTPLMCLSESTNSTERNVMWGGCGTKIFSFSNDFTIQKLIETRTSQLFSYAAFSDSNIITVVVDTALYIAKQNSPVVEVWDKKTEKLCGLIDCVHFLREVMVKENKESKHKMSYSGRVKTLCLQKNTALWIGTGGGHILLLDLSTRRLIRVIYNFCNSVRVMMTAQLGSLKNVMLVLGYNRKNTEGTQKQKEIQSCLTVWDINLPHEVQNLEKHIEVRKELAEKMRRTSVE

LRRK2 protein phosphorylation (LRRK2 protein [1]; [9]): significantly inhibited
phosphorylated LRRK2 protein (LRRK2 protein [1]; concentration of 100 nM): detected
LRRK2 protein phosphorylation (LRRK2 protein [2]; [9]): significantly inhibited
Compound: COc1cc(C(=O)N2CCC(N3CCN(C)CC3)CC2)ccc1Nc1ncc2c(n1)N(C)c1ccccc1C(=O)N2C [Example 10, 2-[(2-Methoxy-4-[[4-(4-Methylpiperazin-1-yl)Piperidin-1-yl]Carbonyl]Phenyl)Amino]-5,11-Dimethyl-5,11-Dihydro-6H-Pyrimido[4,5-b][1,4]Benzodiazepin-6-One]

LRRK2 protein phosphorylation (LRRK2 protein [1]; [9]): significantly inhibited
LRRK2 protein phosphorylation (LRRK2 protein [2]; [9]): significantly inhibited
Compound: CCNc1nc(Nc2cc(F)c(C(=O)N3CCOCC3)cc2OC)ncc1C(F)(F)F [Example 11, (4-(4-(Ethylamino)-5-(Trifluoromethyl)Pyrimidin-2-Ylamino)-2-Fluoro-5-Methoxyphenyl) (Morpholino)Methanone]
apoptosis of NCC01 cells (NCC01 cells [3]): induced

LRRK2 protein phosphorylation (LRRK2 protein [1]; [9]): significantly inhibited
LRRK2 protein phosphorylation (LRRK2 protein [2]; [9]): significantly inhibited
Compound: N#Cc1cccc(-c2c[nH]c3nccc(N4CCOCC4)c23)c1 [Example 21, 3-(4-Morpholino-1H-Pyrrolo[2,3-b]Pyridin-3-yl)Benzonitrile]
apoptosis of NCC01 cells (NCC01 cells [3]): induced
tumor at the position to which the 448T cells were injected (448T cells): no tumor was observed

LRRK2 protein phosphorylation (LRRK2 protein [1]; [9]): significantly inhibited
Compound: Cn1cc(-c2c[nH]c3ncnc(N4CCOCC4)c23)cc1C#N [Example 22, 1-Methyl-4-(4-Morpholino-7H-Pyrrolo[2,3-d]Pyrimidin-5-yl)-1H-Pyrrole-2-Carbonitrile]

The remaining lines, values behind:

Compound: CNc1nc(Nc2cn(C(C)(C)C#N)nc2C)ncc1C(F)(F)F [Comparative Example, 2-Methyl-2-[3-Methyl-4-[[4-(Methylamino)-5-(Trifluoromethyl)Pyrimidin-2-yl]Amino]Pyrazol-1-yl]Propanenitrile, reference compound]
LRRK2 protein phosphorylation (LRRK2 protein [1]; 0.1 or 1.0 µM): did not inhibit
LRRK2 protein phosphorylation (LRRK2 protein [2]; 0.1 or 1.0 µM, Examples stated by contrast ('unlike' = inhibited)): did not inhibit

Compound: CNc1nc(Nc2ccc(C(=O)N3CCOCC3)cc2OC)ncc1C(F)(F)F [Example 12, (3-Methoxy-4-(4-(Methylamino)-5-(Trifluoromethyl)Pyrimidin-2-Ylamino)Phenyl)(Morpholino)Methanone]
LRRK2 protein phosphorylation (LRRK2 protein [1]; [9]): significantly inhibited
LRRK2 protein phosphorylation (LRRK2 protein [2]; [9]): significantly inhibited
LRRK2 protein phosphorylation (LRRK2 protein [2]; concentration of 50 nM): inhibited most
expression of NESTIN protein (NESTIN protein): reducing
fragmentation of nuclei in the cells (NCC01 cells [4]; 1 µM): occurred
degree of color development of the TMRE dye (NCC01 cells [4]; 1 µM, vs control): decreased
activity of the mitochondria present in the brain tumor stem cells (NCC01 cells [4]; 0.1 or 1 µM, compared to the control): inhibited
expression of TRAP1 [5]: inhibited
apoptosis of NCC01 cells (NCC01 cells [3]): induced
apoptosis rate relative to the compounds of Examples 11 and 21 (NCC01 cells [3]): about 3 times
tumor at the position to which the NCC01 cells were injected (MRI) (NCC01 cells [6]; 10 mg/kg or 60 mg/kg): no tumor was observed
average survival period of the mice (NCC01 cells [6]; 10 mg/kg, vehicle 54 days): 71 days
survival of all the mice (NCC01 cells [6]; 60 mg/kg, vehicle average 54 days): ≥ 100 days
therapeutic effect of Avastin on brain tumors (survival) (U87MG cells): further significantly increased
tumor at the position to which the 448T cells were injected (448T cells): no tumor was observed
extent of LRRK2 protein phosphorylation over time (LRRK2 protein [7]; NCC01 cells, 100 nM, starting 1 day after treatment, samples after 1, 4 and 8 days, reduction continued over time): drastically reduced
LRRK2 protein phosphorylation (LRRK2 protein [7]; NCC01 cells, 50, 100, 500, 1,000 and 2,000 nM, concentration-dependent): inhibited
LRRK2 protein phosphorylation (LRRK2 protein [7]; NCC01 cells, concentrations of 50 and 100 nM): mostly inhibited

Compound: C[C@@H]1CN(c2cc(-c3n[nH]c4ccc(OC5(C)CC5)cc34)ncn2)C[C@H](C)O1 [Example 20, (2S,6R)-2,6-Dimethyl-4-(6-(5-(1-Methylcyclopropoxy)-1H-Indazol-3-yl)Pyrimidin-4-yl)Morpholine]
tumor at the position to which the 448T cells were injected (448T cells): no tumor was observed

Compound: LRRK2 shRNA-1: shRNA against the LRRK2 gene, SEQ ID NO: 33 (CCGGCCACAAATTCAACGGAAAGAACTCGAGTTCTTTCCGTTGAATTTGTGGTTTTT)
sphere size (NCC01 cells [8]): suppressed
sphere size (528NS cells): suppressed

Compound: LRRK2 shRNA-2: shRNA against the LRRK2 gene, SEQ ID NO: 34 (CCGGCCCAAATTGGTGGAACTCTTACTCGAGTAAGAGTTCCACCAATTTGGGTTTTT)
sphere size (NCC01 cells [8]): suppressed
sphere size (528NS cells): suppressed
